From BindingDB's records for patent US20250313563 (The Broad Institute, 2025)
“And” between values parts separate entries of the source, which are not always exact repeats. Identical values can stand only once.

How the values were obtained:
[1] = biological target: Glycogen synthase kinase-3 alpha (Homo sapiens, UniProt P49840); experiment: TR-FRET Assay
Procedure: (§1) The assay was performed in a white, 384 well, low volume, flat bottom plate (Grenier). […] The kinase activity was quenched with 2 μL of 250 mM EDTA. A 10 μL volume of 40 nM Strepavidin-d2, 2 nM Tb2+-pSer641 antibody in TR-FRET Detection Buffer (Invitrogen) was then added.

[2] = biological target: Glycogen synthase kinase-3 beta (Homo sapiens, UniProt P49841); experiment: TR-FRET Assay
Chain of Glycogen synthase kinase-3 beta (P49841 whole entry): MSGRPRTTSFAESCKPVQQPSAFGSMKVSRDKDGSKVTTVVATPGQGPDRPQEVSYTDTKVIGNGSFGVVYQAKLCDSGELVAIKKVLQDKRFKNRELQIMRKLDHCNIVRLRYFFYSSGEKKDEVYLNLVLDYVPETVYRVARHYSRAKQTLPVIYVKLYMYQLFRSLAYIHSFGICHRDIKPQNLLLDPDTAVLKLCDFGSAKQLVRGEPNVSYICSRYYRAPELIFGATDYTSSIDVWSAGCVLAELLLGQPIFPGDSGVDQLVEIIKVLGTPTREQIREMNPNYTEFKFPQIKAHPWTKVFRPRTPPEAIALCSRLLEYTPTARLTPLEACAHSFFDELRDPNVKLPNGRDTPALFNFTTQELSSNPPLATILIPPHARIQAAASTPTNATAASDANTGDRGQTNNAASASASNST
Procedure: as §1

Chain of Glycogen synthase kinase-3 alpha (P49840 whole entry): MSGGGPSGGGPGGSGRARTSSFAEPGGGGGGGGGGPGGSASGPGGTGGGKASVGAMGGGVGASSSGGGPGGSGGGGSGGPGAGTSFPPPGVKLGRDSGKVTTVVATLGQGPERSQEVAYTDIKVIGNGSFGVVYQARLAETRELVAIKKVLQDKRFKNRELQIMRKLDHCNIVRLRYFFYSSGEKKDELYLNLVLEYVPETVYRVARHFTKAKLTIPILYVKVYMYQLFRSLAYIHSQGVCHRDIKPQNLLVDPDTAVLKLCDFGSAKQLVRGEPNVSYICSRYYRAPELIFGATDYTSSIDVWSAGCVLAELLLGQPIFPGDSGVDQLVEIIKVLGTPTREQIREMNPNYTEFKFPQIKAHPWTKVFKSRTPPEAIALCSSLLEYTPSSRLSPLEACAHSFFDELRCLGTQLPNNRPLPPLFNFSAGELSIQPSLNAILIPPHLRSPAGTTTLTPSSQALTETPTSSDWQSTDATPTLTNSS

| IC50 [1] | IC50 [2] | Compound |
| --- | --- | --- |
| < 0.1 µM | < 0.1 µM | CC[C@]1(c2cccc(N(C)c3ccnc(F)c3)c2)C2=CN=NC2NC2=C1C(=O)CC(C)(C)C2 (some centres not stated) [US20250313563, Compound 929444] |
| 1 to 5 µM | 1 to 5 µM | CC1(C)CC(=O)C2=C(C1)NC1=C(CN=N1)[C@]21CCC[C@@H](C#N)C1 [US20250313563, Compound 946080] |
| > 5 µM | > 5 µM | CC[C@@]1(c2cccc([C@@H]3CCOC(C)(C)C3)c2)C2=CN=NC2NC2=C1C(=O)CC(C)(C)C2 (some centres not stated) [US20250313563, Compound 912091] |
| < 0.1 µM | 0.1 to 1 µM | CCC1(c2cccc(NC(C)=O)c2)C2=CN=NC2NC2=C1C(=O)CC(C)(C)C2 (configuration not stated) [US20250313563, Compound 877310] |
| < 0.1 µM | 0.1 to 1 µM | Cc1ccc(C(=O)N2CC3(C2)CC2(CO3)C3=C(N=NC3)NC3=C2C(=O)CC(C)(C)C3)c(C)c1 (configuration not stated) [US20250313563, Compound 947294] |
| 1 to 5 µM | > 5 µM | CC1(C)CC(=O)C2=C(C1)NC1=C(CN=N1)C21CNC1 [US20250313563, Compound 912075] |
| 0.1 to 1 µM | 0.1 to 1 µM | COC[C@H]1C[C@@]2(C1)C1=C(N=NC1)NC1=C2C(=O)CC(C)(C)C1 [US20250313563, Compound 912173] |
| 0.1 to 1 µM | 1 to 5 µM | CC[C@@]1(c2cccc(-c3cn(C)nc3C(C)C)c2)C2=CN=NC2NC2=C1C(=O)NC(C)(C)C2 (some centres not stated) [US20250313563, Compound 949111] |
| 0.1 to 1 µM | 0.1 to 1 µM | CC[C@]1(c2cccc(C(F)(F)F)c2)C2=CN=NC2NC2=C1C(=O)N(c1cncnc1)CC2 (some centres not stated) [US20250313563, Compound 948379] |
| 1 to 5 µM | 1 to 5 µM | C[C@@H]1CCC[C@@]12C1=CN=NC1NC1=C2C(=O)CC(C)(C)C1 (some centres not stated) [US20250313563, Compound 874319] |
| < 0.1 µM | < 0.1 µM | CCC1(c2cccc(-c3cnn(C)c3)c2)C2=C(CC(C)(C)NC2=O)NC2N=NC(Cl)=C21 (configuration not stated) [US20250313563, Compound 948767] |
| < 0.1 µM | 0.1 to 1 µM | CC[C@]1(c2ccccc2)C2=C(CC(C)(C)CC2=O)NC2N=NC(C(F)F)=C21 (some centres not stated) [US20250313563, Compound 874511] |
| < 0.1 µM | < 0.1 µM and 0.1 to 1 µM | CCC1(c2cccc(-c3ccncc3C)c2)C2=C(CC(C)(C)CC2=O)NC2N=NC(C(F)(F)F)=C21 (configuration not stated) [US20250313563, Compound 945527] |
| 1 to 5 µM | > 5 µM | CC[C@]1(c2cccc(-c3ccnc(C)c3C)c2)C2=C(CC(C)(C)NC2=O)NC2N=NC(C)=C21 (some centres not stated) [US20250313563, Compound 948183] |
| < 0.1 µM | < 0.1 µM and 0.1 to 1 µM | CCC1(c2cccc(N3CCCCC3)c2)C2=C(CC(C)(C)NC2=O)NC2N=NC(C(F)(F)F)=C21 (configuration not stated) [US20250313563, Compound 947861] |
| 1 to 5 µM | > 5 µM | CC[C@@]1(c2cccc(-c3ccnc(C)c3)c2)C2=CN=NC2NC2=C1C(=O)N[C@@H](C)C2 (some centres not stated) [US20250313563, Compound 926302] |
| > 5 µM | > 5 µM | CC[C@]1(c2cccc(C3=C4CC=C(F)C=C4N=CC3)c2)C2=CN=NC2NC2=C1C(=O)NC(C)(C)C2 (some centres not stated) [US20250313563, Compound 948519] |
| 0.1 to 1 µM | > 5 µM | CC[C@@]1(c2cccc(-c3cc(C(C)(C)C)nn3C)c2)C2=CN=NC2NC2=C1C(=O)NC(C)(C)C2 (some centres not stated) [US20250313563, Compound 951843] |
| < 0.1 µM | < 0.1 µM | CC1(C)CC(=O)C2=C(C1)NC1=C(CN=N1)C21CN(S(=O)(=O)C2CCCCC2)C1 [US20250313563, Compound 918275] |
| 0.1 to 1 µM | 0.1 to 1 µM | CC1(C)CC(=O)C2=C(C1)NC1=C(CN=N1)[C@@]21CC[C@H](C(F)(F)F)C1 [US20250313563, Compound 952434] |
| < 0.1 µM | < 0.1 µM | CCCC(=O)N1CC2(C1)CC1(CO2)C2=C(N=NC2)NC2=C1C(=O)CC(C)(C)C2 (configuration not stated) [US20250313563, Compound 947300] |
